Measurements from article PMC6197257 (Scientific Reports, 2018).

What was measured:
Format in all cases: in vitro ADME
OAT3 = target: T1, OAT3 (Homo sapiens, UniProt Q8TCC7); experiment: uptake by MDCK II cells stably expressing OAT3; settings: pooled plasma of male EHBRs (79 µM compound 1), pH 5.5, 37 °C, 15 min
T1 construct: expressed in transfected cells
T1 sequence (Q8TCC7 1-542): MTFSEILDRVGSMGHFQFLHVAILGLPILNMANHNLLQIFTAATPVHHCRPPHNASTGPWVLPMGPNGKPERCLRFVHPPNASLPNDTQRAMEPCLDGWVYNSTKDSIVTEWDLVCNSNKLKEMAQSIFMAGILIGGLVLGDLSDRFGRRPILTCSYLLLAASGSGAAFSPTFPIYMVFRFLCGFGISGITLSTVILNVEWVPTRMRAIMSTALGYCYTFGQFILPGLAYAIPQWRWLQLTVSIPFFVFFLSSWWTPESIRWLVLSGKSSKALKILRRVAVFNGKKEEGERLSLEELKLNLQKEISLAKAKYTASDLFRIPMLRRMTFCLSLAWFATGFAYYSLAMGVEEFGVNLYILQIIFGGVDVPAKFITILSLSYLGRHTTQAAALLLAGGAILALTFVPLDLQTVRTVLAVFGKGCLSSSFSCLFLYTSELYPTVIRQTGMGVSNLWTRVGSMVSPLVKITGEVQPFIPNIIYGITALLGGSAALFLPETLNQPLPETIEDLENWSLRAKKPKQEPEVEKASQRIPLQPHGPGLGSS
Protocol: (§1) MDCKII cells were cultured in Dulbecco’s modified Eagle’s medium containing 10% FBS, 100 U/ml penicillin, and 100 µg/ml streptomycin at 37 °C in 5% CO2. Plasmids carrying the cDNAs encoding human organic anion transporter (OAT) 1 and 3 were prepared using the pCI-neo mammalian expression vector, as described previously. Using the plasmids, MDCKII cells stably expressing OAT1 and 3 were prepared as described previously, and tested for their functional expressions by evaluating the transports of [^3H]p-aminohippurate and [^3H]estrone sulfate, respectively, as probe substrates.
(§2) For the transport assay, the cells were seeded in 24-well plates (1 × 10^5 cells/well), and incubated for 24 h. The cells were pre-incubated for 15 min at 37 °C with 0.25 ml of the incubation medium described above. Two ml of pooled female or male EHBR plasma samples was lyophilized, and dissolved in 2 ml of 10 mM MES (pH 5.5). The cells were then incubated further at 37 °C for 15 min with 0.1 ml of pooled female or male EHBR plasma samples. The surface of the cells was washed 3 times with 0.5 ml of ice-cold PBS, and then the contents were extracted with 0.2 ml of ethanol. The cell residues were dissolved by 0.1 ml of 1 M NaOH, and after neutralization by adding 0.1 ml of 1 M HCl, the concentrations of protein were measured as mentioned above.

rat kidney slices = experiment: uptake by rat kidney slices; settings: pooled plasma of female EHBRs, pH 5.5, 2 h
Protocol: Female SD rats (9-week-old) were treated with urethane (1 g/kg, i.p.), and their kidneys were collected. After removal of the capsule, the kidneys were sliced at approximately 0.5-mm thickness in the frontal section of the organ, using a tissue slicer (Natsume Seisakusyo, Tokyo, Japan) and then cut at the renal hilus into two halves. The slices were pre-incubated at either 4 or 37 °C for 15 min in 24-well plates with 0.3 ml of the incubation medium (137 mM NaCl, 5.4 mM KCl, 0.95 mM CaCl2, 0.81 mM MgSO4, 0.44 mM KH2PO4, 0.25 mM Na2HPO4, 5.5 mM glucose, 10 mM MES, adjusted to pH 5.5). Five ml of pooled female EHBR plasma samples was lyophilized, and dissolved in 5 ml of the incubation medium. […] After washing with PBS three times, the kidney slices were homogenated in PBS using sonication, and the concentrations of protein were measured as mentioned above. […]
LC-ESI(+)MS/MS analysis was conducted at the following conditions: column, Scherzo SM-C18 (3 μm, 3 mm i.d. ×100 mm, Imtakt, Kyoto, Japan); mobile phase, (A) 5 mM AcNH4, (B) 125 mM AcNH4/acetonitrole 1:4, at a flow rate of 0.3 ml/min, with the following gradient profile: A:B = 50:50–0:100 (0–3 min) and 0:100 (3–10 min); compound 1 (5.8 min), astragaloside IV (3.0 min), GA (8.7 min); the transitions monitored were the same as described in the previous section. […]

OAT1 = target: T2, OAT1 (Homo sapiens, UniProt Q4U2R8); experiment: uptake by MDCK II cells stably expressing OAT1; settings: pooled plasma of male EHBRs (79 µM compound 1), pH 5.5, 37 °C, 15 min
T2 construct: expressed in transfected cells
T2 sequence (Q4U2R8 1-563): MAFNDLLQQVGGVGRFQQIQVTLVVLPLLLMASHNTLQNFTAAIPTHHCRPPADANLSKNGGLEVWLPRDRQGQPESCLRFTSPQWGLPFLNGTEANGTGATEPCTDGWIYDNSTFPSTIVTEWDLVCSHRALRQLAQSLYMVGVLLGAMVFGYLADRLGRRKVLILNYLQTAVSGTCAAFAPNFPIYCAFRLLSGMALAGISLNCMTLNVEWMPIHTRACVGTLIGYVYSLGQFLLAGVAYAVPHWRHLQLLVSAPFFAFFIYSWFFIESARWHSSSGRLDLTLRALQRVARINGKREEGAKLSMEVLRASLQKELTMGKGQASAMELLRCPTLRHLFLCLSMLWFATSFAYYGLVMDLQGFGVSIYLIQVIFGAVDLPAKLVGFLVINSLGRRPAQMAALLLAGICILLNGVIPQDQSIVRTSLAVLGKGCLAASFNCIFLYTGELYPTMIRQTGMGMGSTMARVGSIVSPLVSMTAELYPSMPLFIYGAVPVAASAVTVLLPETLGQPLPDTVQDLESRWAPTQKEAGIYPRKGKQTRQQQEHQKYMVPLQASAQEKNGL
Protocol: as §1, §2

Q: Which results are given for `CC1(C(=O)OC2OC(C(=O)O)C(O)C(O)C2O)CC(O)C2(C)CCC3(C)C(=CC(=O)C4C5(C)CCC(OS(=O)(=O)O)C(C)(C)C5CCC43C)C2C1` (stereo not drawn) [Compound 1, 22α-hydroxy-18β-glycyrrhetyl-3-O-sulfate-30-glucuronide]?
A: uptake by cells expressing OAT3 compared with mock cells (OAT3): higher than that by mock cells; uptake by kidney slices at 37 °C compared with 4 °C (rat kidney slices): significantly higher; uptake by cells expressing OAT1 compared with mock cells (OAT1): higher than that by mock cells
